Experiments:
[1] = system: bronchospasms elicited by acetylcholine; experiment: Bronchodilator activity (Konzett assay), spasmogen acetylcholine; assay type: in vivo, guinea pig; settings: Cavia porcellus; guinea pigs, spasmogen acetylcholine i.v.; three logarithmic cumulative intravenous doses
Description: (§1) Bronchodilator activity was determined in guinea pigs against bronchospasms elicited by intravenous injections of 5-hydroxytryptamine, histamine or acetylcholine by the Konzett procedure. [See J. Lulling, P. Lievens, F. El Sayed and J. Prignot, Arzneimittel-Forschung, 18, 995 (1968).]
(§2) In the Table which follows bronchodilator activity for representative compounds of this invention against one or more of three spasmogenic agents is expressed as an ED50 determined from the results obtained with three logarithemic cumulative intravenous doses.

[2] = system: bronchospasms elicited by 5-hydroxytryptamine; experiment: Bronchodilator activity (Konzett assay), spasmogen 5-hydroxytryptamine; assay type: in vivo, guinea pig; settings: Cavia porcellus; guinea pigs, spasmogen 5-hydroxytryptamine i.v.; three logarithmic cumulative intravenous doses
Description: as §1, §2

[3] = system: bronchospasms elicited by histamine; experiment: Bronchodilator activity (Konzett assay), spasmogen histamine; assay type: in vivo, guinea pig; settings: Cavia porcellus; guinea pigs, spasmogen histamine i.v.; three logarithmic cumulative intravenous doses
Description: as §1, §2

[4] = system: ulcerogenic properties of indomethacin; experiment: Protection against indomethacin-induced ulcers (oral gavage); assay type: in vivo, rat; settings: rats, indomethacin 20 mg./kg. s.c., score 0 normal to 4 many ulcers
Description: The compounds of this invention provide protection against the ulcerogenic properties of indomethacin. This assay was carried out in the following manner.
Rats were starved for 48 hours (water was given ad libitum). Indomethacin (20 mg./kg. of body weight) was administered by the subcutaneous route and one-half the dose of the test compound was administered by gavage at the same time. After three hours, the second half of the test compound was administered also be gavage. Five hours after the administration of indomethacin the animals were decapitated and the stomachs removed. The stomachs were washed with distilled water, blotted on gauze, cut along the larger curvature, and the contents rinsed with distilled water. The stomachs were spread out, pinned on a cork and visualized under magnifying glass for ulcers. The criteria for scoring of ulcers was as previously reported. [Abdel-Galil et al. Brit. J. Pharmac. Chemotherapy 33:1-14 (1968)].
1-Petechial hemorrhage or pin point ulder
3 Many ulcers, a few large
4-Many ulcers, mainly large
Control animals treated with indomethacin but not test compound consistenly give scores of about 3.0. Control animals treated with neither indomethacin nor test compound gives scores of about 0.5-0.8. Compounds producing a lowering of the control score by 0.5 or more are considered to be active.

`O=C(O)CCCCCC[C@H]1C(=O)CC[C@@H]1/C=C/[C@H](O)CC1CCCC1` (relative stereo) [9-oxo-15-epi-hydroxy-17,20-methano-13-trans-prostenoic acid] was tested, and the ED50 [1] was 3.2 mg/kg, the ED50 [2] was 3.2 mg/kg and the ED50 [3] was 0.206 mg/kg. For the same compound, the “Score, treated (ulcer score)” value ([4]; total oral dose 25.0 mg./kg. of body weight, control score 3.0) was 1.7.
In the case of `O=C(O)CCCCCC[C@H]1C(=O)CC[C@@H]1/C=C/[C@@H](O)CC1CCCC1` (relative stereo) [9-oxo-15-hydroxy-17,20-methano-13-trans-prostenoic acid], the ED50 [1] was 3.2 mg/kg, the ED50 [2] was 0.0063 mg/kg and the ED50 [3] was 0.0014 mg/kg. For the same compound, the “Score, treated (ulcer score)” value ([4]; total oral dose 12.5 mg./kg. of body weight, control score 2.8) was 1.8.

— patent US4180677A, “Novel prostaglandins” (American Cyanamid Company, priority 1977, dated 1979)
